Test results from patent US5061794A, “Cephalosporin derivatives, and antibacterial agents” (priority 1986, dated 1991).
≈ marks a conversion by molar mass, not a printed value. Structures can show the parent of a compound that is named as a salt. Where two headings read alike, the source gives them in different places.

Experiments:
[1] = test system: Ps. aeruginosa IF03445; test: in vitro antibacterial activity, agar plate dilution method (MIC); assay type: cell-based, Pseudomonas aeruginosa; conditions: Pseudomonas aeruginosa, 10^6 CFU/ml
In short: (§1)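 Agar plate dilution on Mueller Hinton agar containing graded compound levels, inoculated at 10^6 CFU/ml from overnight Mueller Hinton broth cultures. MIC (μg/ml) read after 16 h at 37°C.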

[2] = test system: Ps. aeruginosa AK 109; test: as above; assay type: cell-based, Pseudomonas aeruginosa; conditions: Pseudomonas aeruginosa, AK109, 16 h, read-out: Minimum Inhibitory Concentration (MIC)
In short: as §1

[3] = test system: P. vulgaris HX-19; test: as above; assay type: cell-based; conditions: Proteus vulgaris, HX19, 16 h, read-out: Minimum Inhibitory Concentration (MIC)
In short: as §1

[4] = test system: P. vulgaris No. 33; test: as above; assay type: cell-based; conditions: Proteus vulgaris, 10^6 CFU/ml
In short: as §1

[5] = test system: S. aureus 209P NIHJ-JC1; test: as above; assay type: cell-based; conditions: Staphylococcus aureus, 16 h
In short: as §1

[6] = test system: K. pneumoniae PCI-602; test: as above; assay type: cell-based; conditions: Klebsiella pneumoniae, PCI602, 16 h, 10^6 CFU/ml
In short: as §1

[7] = test system: E. cloacae 963; test: as above; assay type: cell-based; conditions: 10^6 CFU/ml
In short: as §1

[8] = test system: E. coli NIHJ JC2; test: as above; assay type: cell-based; conditions: Escherichia coli
In short: as §1

[9] = test system: E. coli GN5482; test: as above; assay type: cell-based; conditions: Escherichia coli, GN5482, 16 h, read-out: Minimum Inhibitory Concentration (MIC)
In short: as §1

[10] = test system: E. cloacae Nek 39; test: as above; assay type: cell-based; conditions: Enterobacter cloacae, NEK39, 16 h, 10^6 CFU/ml
In short: as §1

[11] = test system: S. marcescens IAM 1184; test: as above; assay type: cell-based; conditions: Serratia marcescens, IAM1184, 16 h, read-out: Minimum Inhibitory Concentration (MIC)
In short: as §1

[12] = test system: K. pneumoniae No. 42; test: as above; assay type: cell-based; conditions: Klebsiella pneumoniae, 10^6 CFU/ml
In short: as §1

[13] = test system: M. morganii GN5407; test: as above; assay type: cell-based; conditions: Morganella morganii, GN5407, 16 h, read-out: Minimum Inhibitory Concentration (MIC), *M. morganii GN5407, lactamase-producing strain; 10^6 CFU/ml
In short: as §1

[14] = test system: K. oxytoca GN10650; test: as above; assay type: cell-based; conditions: Klebsiella oxytoca, 10^6 CFU/ml
In short: as §1

[15] = test system: S. marcescens No. 16-2; test: as above; assay type: cell-based; conditions: Serratia marcescens, NO.162, 16 h, read-out: Minimum Inhibitory Concentration (MIC)
In short: as §1

[16] = concentration in blood of mice after subcutaneous administration; assay type: in vivo, mice (ddY type, male); conditions: mouse, sc, 20 mg/kg
[17] = test system: A. calcoaceticus No. 4; test: in vitro antibacterial activity, agar plate dilution method (MIC); assay type: cell-based, Acinetobacter calcoaceticus; conditions: Acinetobacter calcoaceticus, NO.4, 16 h, 10^6 CFU/ml
In short: as §1

[18] = test system: Ps. aeruginosa AKR17; test: as above; assay type: cell-based, Pseudomonas aeruginosa; conditions: Pseudomonas aeruginosa, 16 h; Ps. aeruginosa AKR17; 10^6 CFU/ml; read-out: Minimum Inhibitory Concentration (MIC)
In short: as §1

[19] = test system: Ps. cepacia 23; test: as above; assay type: cell-based, Pseudomonas cepacia; conditions: read-out: Minimum Inhibitory Concentration (MIC)
In short: as §1

[20] = test system: E. coli CSH2 (RK1); test: microbe, parasite or virus in culture; assay type: cell-based; conditions: Escherichia coli, 16 h, read-out: Minimum Inhibitory Concentration (MIC), *E. coli CSH2 (RK1), lactamase-producing strain; 10^6 CFU/ml
In short: as §1

[21] = test system: E. coli CSH(RE45); test: microbe, parasite or virus in culture; assay type: cell-based; conditions: Escherichia coli, 16 h, read-out: Minimum Inhibitory Concentration (MIC), *E. coli CSH(RE45), lactamase-producing strain; 10^6 CFU/ml
In short: as §1

[22] = IF03445, 16 h, read-out: Minimum Inhibitory Concentration (MIC), Ps. aeruginosa IF03445
[23] = NO.33, 16 h, read-out: Minimum Inhibitory Concentration (MIC), *P. vulgaris No. 33, lactamase-producing strain
[24] = read-out: Minimum Inhibitory Concentration (MIC)
[25] = read-out: Minimum Inhibitory Concentration (MIC), K. pneumoniae PCI-602
[26] = Enterobacter cloacae, 963, 16 h, read-out: Minimum Inhibitory Concentration (MIC), E. cloacae 963
[27] = NIHJJC2, 16 h, read-out: Minimum Inhibitory Concentration (MIC), E. coli NIHJ JC2, 10^6 CFU/ml, 37° C.
[28] = read-out: Minimum Inhibitory Concentration (MIC), *E. cloacae Nek 39, lactamase-producing strain
[29] = NO.42, 16 h, read-out: Minimum Inhibitory Concentration (MIC), *K. pneumoniae No. 42, lactamase-producing strain
[30] = GN10650, 16 h, read-out: Minimum Inhibitory Concentration (MIC), *K. oxytoca GN10650, lactamase-producing strain
[31] = read-out: Minimum Inhibitory Concentration (MIC), A. calcoaceticus No. 4
[32] = 16 h, Ps. aeruginosa IF03445, read-out: Minimum Inhibitory Concentration (MIC)
[33] = Ps. aeruginosa AK 109, 10^6 CFU/ml
[34] = K. pneumoniae PCI-602, read-out: Minimum Inhibitory Concentration (MIC)
[35] = 16 h, *K. oxytoca GN10650, lactamase-producing strain, read-out: Minimum Inhibitory Concentration (MIC)
[36] = *S. marcescens No. 16-2, lactamase-producing strain, 10^6 CFU/ml
[37] = A. calcoaceticus No. 4, read-out: Minimum Inhibitory Concentration (MIC)
[38] = *E. cloacae Nek 39, lactamase-producing strain, read-out: Minimum Inhibitory Concentration (MIC)
[39] = Burkholderia cepacia, 16 h, Ps. cepacia 23, 10^6 CFU/ml
[40] = Enterobacter cloacae, 16 h, E. cloacae 963, read-out: Minimum Inhibitory Concentration (MIC)
[41] = S. marcescens IAM 1184, 10^6 CFU/ml

Row | Structure (SMILES) | MIC [1, 22] [mg/L] | MIC [4, 23] [mg/L] | MIC [5, 24] [mg/L] | MIC [6, 25] [mg/L] | MIC [7, 26] [mg/L] | MIC [8, 27] [mg/L] | MIC [9] [mg/L] | MIC [10, 28] [mg/L] | MIC [11] [mg/L] | MIC [12, 29] [mg/L] | MIC [13] [mg/L] | MIC [14, 30] [mg/L] | MIC [1, 32] [mg/L] | MIC [2, 33] [mg/L] | MIC [18] [mg/L] | MIC ([3]; P. vulgaris HX-19, 10^6 CFU/ml) [mg/L] | MIC [15, 36] [mg/L] | MIC [17, 37] [mg/L] | MIC [20] [mg/L] | MIC [21] [mg/L] | also measured
1 | CC(C)(O/N=C(\C(=O)N[C@@H]1C(=O)N2C(C(=O)[O-])=C(C[n+]3ccccc3)CS[C@H]12)c1csc(N)n1)C(=O)O [ceftazidime, reference compound] | 1.56 (≈ 2.85 µM) | 0.05 (≈ 0.0915 µM) | 6.25 (≈ 11.4 µM) | 0.025 (≈ 0.0457 µM) | 0.1 (≈ 0.183 µM) | 0.1 (≈ 0.183 µM) | 1.56 (≈ 2.85 µM) | 1.56 (≈ 2.85 µM) | < 0.006 | 0.39 (≈ 0.714 µM) | 0.1 (≈ 0.183 µM) | 0.1 (≈ 0.183 µM) | – | – | – | – | – | – | – | – | MIC [2]: 0.78 mg/L (≈ 1.43 µM); MIC [3]: 0.025 mg/L (≈ 0.0457 µM); MIC [15]: 1.56 mg/L (≈ 2.85 µM); concentration at 0.125 h ([16]; 7.5 min): 25.4 µg/mL; concentration at 0.25 h ([16]; 15 min): 24.1 µg/mL; concentration at 0.5 h ([16]; 30 min): 17.3 µg/mL; concentration at 1 h ([16]; 60 min): 3.3 µg/mL; concentration at 2 h ([16]; 120 min): 0.2 µg/mL; MIC [17, 31]: 6.25 mg/L (≈ 11.4 µM)
2 | CO/N=C(\C(=O)N[C@@H]1C(=O)N2C(C(=O)O)=C(CSc3nc(-c4ccccc4)c(CC(=O)O)s3)CS[C@H]12)c1csc(N)n1 [compound 15, disodium 7β-[2-(2-aminothiazol-4-yl)-2-methoxyiminoacetamido]-3-(5-carboxylatemethyl-4-phenylthiazol-2-yl)thiomethyl-3-cephem-4-carboxylate, reference compound] | – | 0.2 | 3.12 | – | 0.39 | 0.78 | 3.12 | 12.5 | 0.78 | 0.78 | 0.39 | – | 100 | 100 | > 100 | < 0.006 | 50 | 100 | 0.39 | 0.78 | MIC ([19]; Burkholderia cepacia, 23, 16 h): 6.25 mg/L; MIC [6, 34]: 0.2 mg/L; MIC [14, 35]: 25 mg/L
3 | CC(C)(O/N=C(\C(=O)N[C@@H]1C(=O)N2C(C(=O)O)=C(CSc3ncc(-c4ccccc4)o3)CS[C@H]12)c1csc(N)n1)C(=O)O [compound 22, disodium 7β-[2-(2-aminothiazol-4-yl)-2-(1-carboxylate-1-methylethoxyimino)acetamido]-3(5-phenyloxazol-2-yl)thiomethyl-3-cephem-4-carboxylate, reference compound] | – | 0.78 | – | 0.1 | 12.5 | 12.5 | 3.12 | – | 3.12 | 12.5 | 6.25 | 6.25 | 50 | 50 | > 100 | < 0.006 | 25 | > 100 | 3.12 | 3.12 | MIC ([19]; Burkholderia cepacia, 23, 16 h): 12.5 mg/L; MIC ([5]; read-out: Minimum Inhibitory Concentration (MIC), S. aureus 209P NIHJ-JC1, 10^6 CFU/ml, 37° C., 16 hours): 6.25 mg/L; MIC [10, 38]: 25 mg/L
4 | CO/N=C(\C(=O)N[C@@H]1C(=O)N2C(C(=O)O)=C(CSc3nnc(-c4ccc(O)cc4)s3)CS[C@H]12)c1csc(N)n1 [compound 7, 7β-[2-(2-aminothiazol-4-yl)-2methoxyiminoacetamido]-3-[5-(4-hydroxyphenyl-1,3,4-thiadiazol-2-yl)thiomethyl-3-cephem-4-carboxylic acid trifluoroacetate, reference compound] | – | – | – | – | – | – | 0.78 | – | – | – | 0.78 | – | 25 | 25 | > 100 | < 0.006 | 3.12 | 1.56 | 0.2 | 0.2 | MIC [19, 39]: 3.12 mg/L; MIC ([4]; 16 h, *P. vulgaris No. 33, lactamase-producing strain, read-out: Minimum Inhibitory Concentration (MIC)): 1.56 mg/L; MIC ([5]; S. aureus 209P NIHJ-JC1, 10^6 CFU/ml, 37° C., 16 hours, read-out: Minimum Inhibitory Concentration (MIC)): 0.39 mg/L; MIC [6, 34]: < 0.006 mg/L; MIC [7, 40]: 1.56 mg/L; MIC ([8]; NIHJJC2, E. coli NIHJ JC2, 10^6 CFU/ml, 37° C., 16 hours, read-out: Minimum Inhibitory Concentration (MIC)): 0.39 mg/L; MIC [10, 38]: 3.12 mg/L; MIC [11, 41]: 0.39 mg/L; MIC ([12]; 16 h, *K. pneumoniae No. 42, lactamase-producing strain, read-out: Minimum Inhibitory Concentration (MIC)): 1.56 mg/L; MIC [14, 35]: 3.12 mg/L
5 | CON=C(C(=O)NC1C(=O)N2C(C(=O)O)=C(CSc3nc(C(=O)O)c(-c4ccc(O)c(O)c4)s3)CSC12)c1csc(N)n1 (centres unmarked) [Ex. 52] | 6.25 (≈ 9.4 µM) | 0.1 (≈ 0.15 µM) | 12.5 (≈ 18.8 µM) | < 0.006 | – | 0.39 (≈ 0.587 µM) | 3.12 (≈ 4.69 µM) | 0.78 (≈ 1.17 µM) | – | 0.1 (≈ 0.15 µM) | 0.1 (≈ 0.15 µM) | 6.25 (≈ 9.4 µM) | – | – | > 100 | – | – | – | 0.0125 (≈ 0.0188 µM) | 0.05 (≈ 0.0752 µM) | MIC [2]: 12.5 mg/L (≈ 18.8 µM); MIC [19, 39]: 0.025 mg/L (≈ 0.0376 µM); MIC [3]: 0.0125 mg/L (≈ 0.0188 µM); MIC [7, 40]: 0.1 mg/L (≈ 0.15 µM); MIC [11, 41]: 0.1 mg/L (≈ 0.15 µM); MIC [15]: 12.5 mg/L (≈ 18.8 µM); MIC [17, 31]: 0.39 mg/L (≈ 0.587 µM)
